The text below walks through data of ChEMBL document CHEMBL1150940, “New melampolides from Schkuhria schkuhrioides” (1998).

≈ marks a conversion by molar mass, not a printed value.

A short description of assay [1]: Cytotoxicity against human UISO cells. Format: functional. The following applies: read-out: ED50 (the source's name).
Assay [2] can be described thus: Cytotoxicity against human COLON cells. Format: functional. The conditions noted are these: read-out: ED50 (the source's name).

Consider `C=C1C(=O)O[C@@H]2/C=C(\C)CC/C=C(/C=O)C[C@@H](O)[C@@H]12`, for which the EC50 in assay [1] was 1.82 µg/mL (≈ 6.94 µM); in assay [2] it was 0.9 µg/mL (≈ 3.43 µM).
